One may read the pKa as the negative logarithm of the acid dissociation constant. A higher pKa goes with a weaker acid or stronger base.

These results are taken from patent publication US6963769B1, “Method for enhancing contrast produced by MRI” (The United States of America as represented by the …, priority 1999, dated 2005).

Series [1] can be described thus: in vitro CEDST spectra of candidate contrast agents (proton chemical exchange with water), 7T. The conditions noted are these: for chemical shift of proton chemical exchange site (ΔωcA): relative to water.
Protocol: Test compounds were dissolved in HPLC grade water at concentrations denoted in Table 1 with inorganic phosphate buffers to maintain pH.
CEDST spectra were acquired at 7T using a Bruker AC-300 wide bore spectrometer at 37° C. The observation frequency was set on the water peak and the decoupler was used to provide off-resonance saturation. Studies were conducted using a steady-state with irradiation (15 seconds) over a range of irradiation frequencies ±8.00 ppm from water. CEDST spectra were plotted in the form of water amplitude (Ms) versus irradiation frequency.
Several chemical reagents, including 5,6-dihydrouracil, 5-hydroxy-tryptophan, hydantoin, parabanic acid, sugars, amino acids, nucleosides, and imidazoles (Table 1), were tested for their ability to undergo proton chemical exchange detected using CEDST. Chemical shifts are reported relative to the water resonance. The spectral dependence of CEDST was determined by sweeping the irradiation frequency and while monitoring the water resonance.
Saturation depends on the B1 power and the irradiation offset frequency. The appropriate power was determined by increasing power until no further decrease in Ms was observed. […] Spin lattice relaxation time constants (T1) were obtained with inversion-recovery experiments. The range of inversion delays (Ti) was between 0.001 and 30 seconds, with a 30 second pre-delay.
Series [2] can be described thus: pKa of the proton exchange site.
The conditions of series [3]: cited from earlier work.
A short description of series [4]: MR images of phantoms, 4T GRE sequence with off-resonance saturation at ±850 Hz (5.00 ppm), difference image. It counts as physicochemical. The method, then: The results in FIG. 3 confirm those of FIG. 2. MR images of phantoms were collected on a custom-designed 4T system operating at room temperature (about 20° C.). The imaging sequence itself is a GRE (Gradient Recalled Echo) imaging sequence with an off-resonance saturation pulse centered at an offset of 5.00 ppm (850 Hz for the field at 4 Tesla). The other parameters used were: 90 degree flip angle used, TE (Echo time)=9 msec, TR (Repetition time)=1.2 sec, 16 Sinc pulses, followed by crusher gradients (which completely dephased the transverse magnetization). Four test tubes are shown in FIG. 3, with each containing a different solution. Three contained 62.5 mM barbituric acid at pH=7.4, 7.0, or 6.5. The fourth test tube contained 500 mM NH4Cl at pH=5.0. These test tubes were placed inside the 4T NMR imaging system, irradiated at ±850 Hz, and both control and experimental images were collected as described previously. FIG. 3 is the difference image generated by subtracting the experimental image from the control image. […] Therefore, the signals in these phantoms were generated due to proton chemical exchange with barbituric acid. The brightest signal in these phantoms (where the control and experimental image difference was the greatest) was generated by barbituric acid at pH=7.4.

In a further series the test system is rabbit bladder. As to the kind of experiment: in vivo CEDST MRI of rabbit bladder after intravenous barbituric acid, 4 Tesla. Also noted: species or system New Zealand White rabbit. The method, then: This example describes the in vivo analysis of barbituric acid in a rabbit bladder. A male New Zealand White rabbit (1.5 kg, Hazelton Research Products, Denver Pa.) was initially anaesthetized with an intramuscular injection of a mixture of ketamine/acepromazaine (180 mg/2 mg), intubated and placed on a Siemens 900c ventilator (Siemens Medical Systems, Danvers Mass.). A catheter was placed in the marginal ear vein for infusion of intravenous fluids to maintain volume status. This catheter also was used to administer three doses of 50 mL barbituric acid solution (125 mM, pH=7.4, 20 mM phosphate buffer). Anesthesia was maintained with 2% isoflurane until sacrifice with 6 meq of KCl IV.
The rabbit was analyzed using a 4 Tesla magnet at the settings described in Example 1. The images were obtained after irradiation at the ppm offset characteristic of barbituric acid (5.25). […] The bladder and surrounding muscles are visible. This control image is collected to correct for the broad background of saturation transfer from macromolecules (i.e. proteins, lipids) located underneath the water signal. Guivel-Scharen et al., J. Magn. Reson., 133:36-45 (1998), herein incorporated by reference. […] This will irradiate the barbituric acid signal.
Following sacrifice of the rabbit, urine was collected and evaluated on the 7T system at 37° C. as described in Example 1. […] FIGS. 12-14 also confirm the identity of the metabolite imaged during the in vivo analysis.

The conditions of series [5]: cited from earlier work. The source holds these as a separate data set.
[6] abbreviates: sugars 250 mM, —OH protons, single pH 7.0, 37° C., 20 mM phosphate buffer.
The mark [7] stands for this setting: sugars 250 mM, —OH protons, single pH 7.0, 37° C., 20 mM phosphate buffer, saturation power 10.88 × 10^−7T.
Setting [8] is: 125 mM, 37° C., 20 mM phosphate buffer, 10.88 × 10^−7T, at given ppm and pH.
Where [9] appears, read: 125 mM, 37° C., 20 mM phosphate buffer, exchange site.
Where [10] appears, read: 125 mM, 3-NH, 37° C., 2 mM phosphate buffer, 10.88 × 10^−7T, at listed pH.
Setting [11] is: 62.5 mM, 37° C., 20 mM phosphate buffer, 10.88 × 10^−7T, at given ppm and pH.
[12] abbreviates: 62.5 mM, 37° C., 20 mM phosphate buffer, exchange site.
Where [13] appears, read: imidazole derivatives, ring protons (—NH), concentration not given, 37° C., 20 mM phosphate buffer.
[14] abbreviates: 125 mM, guanidinium protons, single pH 7.0, 37° C., 20 mM phosphate buffer, 10.88 × 10^−7T.
Where [15] appears, read: 35 mM, —NH2, 37° C., 20 mM phosphate buffer, 10.88 × 10^−7T, at listed pH.

Values joined by “and” are separate entries in the source; they are usually repeats but may differ in a detail not shown here. Equal entries are not always repeated. Structures can show the parent of a compound that is named as a salt. Where two headings read alike, the source gives them in different places.

Consider `OC[C@@H](O)[C@@H](O)[C@H](O)[C@@H](O)CO` [Sorbitol], for which, in series [1] (setting [6]), the “ppm (relative to the resonant frequency of water)” value came to 1.000 ppm. In series [1] (setting [7]), the “Mo − Ms (%)” value is 7.3% and the Ms/Mo is recorded as 0.88.

As for `NC(=O)CC[C@H](N)C(=O)O` [L-Glutamine], in series [1] (setting [8]), the “Mo − Ms (%)” value is given as 27.6% and the Ms/Mo came to 0.70. Besides, in series [1] (setting [9]), the “ppm (relative to the resonant frequency of water)” value worked out at 2.000 ppm.

Compound `O=c1ccn([C@@H]2O[C@H](CO)[C@@H](O)[C@H]2O)c(=O)[nH]1` [Uridine] yielded a Ms/Mo in series [1] (setting [10]) of 0.65.

In the case of `Cc1cn([C@H]2C[C@H](O)[C@@H](CO)O2)c(=O)[nH]c1=O` [Thymidine], in series [1] (125 mM, 3-NH, 37° C., 2 mM phosphate buffer), the “ppm (relative to the resonant frequency of water)” value was 6.333 ppm. In series [1] (setting [10]), the “Mo − Ms (%)” value worked out at 34.8% and the Ms/Mo is 0.65.

For the compound `C[C@H](N)C(=O)O` [L-Alanine], in series [1] (setting [8]), the “Mo − Ms (%)” value amounted to 67.4% and the Ms/Mo is 0.36. For the same compound, the “ppm (relative to the resonant frequency of water)” value in series [1] (setting [9]) is 3.000 ppm.

Turning to `O=C(O)C1CCN1` (stereo not shown) [Azetidine-2-Carboxylic Acid], in series [1] (setting [11]), the “Mo − Ms (%)” value turned out to be 25.5% and the Ms/Mo was determined as 0.74. Moreover, the “ppm (relative to the resonant frequency of water)” value in series [1] (setting [12]) is listed as 3.50 ppm.

In series [2], `CCC1(CC)C(=O)NC(=O)NC1=O` [Barbital (5,5-Diethyl-Barbituric Acid), 5,5-Diethyl-Barbituric Acid] had a pKa of 7. In series [1] (setting [11]), the “Mo − Ms (%)” value worked out at 14.2% and the Ms/Mo is on record as 0.82. Besides, the “ppm (relative to the resonant frequency of water)” value in series [1] (setting [12]) is reported as 5.000 ppm.

For `N[C@@H](Cc1c[nH]c2ccc(O)cc12)C(=O)O` [5-Hydroxy-Tryptophan], the Ms/Mo in series [1] (setting [11]) is 0.57 and 0.79. Moreover, the “ppm (relative to the resonant frequency of water)” value in series [1] (setting [12]) is 2.833 ppm and 5.333 ppm. Also, the “chemical shift of proton chemical exchange site (ΔωcA)” value in series [1] was 5.33 ppm and 2.83 ppm; in series [1] (listed as 5-HT), 5.33 ppm.

Take `O=C(O)C1CCCCN1` (stereo not shown) [Pipecolinic Acid]: in series [1] (setting [11]), the “Mo − Ms (%)” value was 19.3% and the Ms/Mo came out at 0.81. Also, in series [1] (setting [12]), the “ppm (relative to the resonant frequency of water)” value worked out at 3.33 ppm.

For `O=C1CCNC(=O)N1` [5,6 Dihydrouracil], the “pKa of the 5.00 ppm site” value in series [3] is given as about 9.5. In series [1] (setting [11]), the “Mo − Ms (%)” value worked out at 22.2%; the Ms/Mo is 0.78 and 0.77. The “ppm (relative to the resonant frequency of water)” value in series [1] (setting [12]) is 5.000 ppm and 2.667 ppm. Further, in series [1] (running text, listed as 5,6-dihydro-uracil), the “chemical shift of proton chemical exchange site (ΔωcA)” value is 5.00 ppm and 2.67 ppm. In addition, the “chemical shift of proton chemical exchange site (ΔωcA)” value in series [1] (running text, listed as 5,6-dihydrouracil) is 5.0 ppm and 2.67 ppm.

`O=C1NC(=O)C(=O)N1` [Parabanic Acid]: in series [1] (setting [11]), the “Mo − Ms (%)” value is 20.5% and 25.4% and 22.5%; the Ms/Mo is 0.79 and 0.74 and 0.77.

Take `O=C1NCCN1` [2-Imidazolidone]: in series [1] (setting [13]), the “Mo − Ms (%)” value was 30.4% and 29.8%; the Ms/Mo is 0.68; the “ppm (relative to the resonant frequency of water)” value is on record as 1.167 ppm.

For the compound `O=C1CC(=O)NC(=O)N1` [Barbituric Acid], the “enhancement in difference image of phantoms” value in series [4] (4T, about 20° C., irradiated at ±850 Hz, barbituric acid 62.5 mM pH 7.4, 7.0, 6.5, NH4Cl 500 mM pH 5.0) is listed as “enhanced”. The “physiological response to the injection” value with rabbit bladder (intravenous, 125 mM solution) is reported as “physiologically unaltered (i.e. no change in blood pressure)”. Moreover, in the series on rabbit bladder (intravenous, 50 mL doses of 125 mM solution, pH 7.4), the “time to reach the kidneys” value is at most 20 min. The “location of signal remaining in the in vivo difference image” value in the series on rabbit bladder (irradiation ±900 Hz (5.25 ppm/4T)) is reported as “is in the bladder, not in the muscle or other tissues”. Further, the “Oral dosage toxicity, LD50” value in series [5] was over 5000 mg/kg. Also, the pKa in series [2] came to 12. Besides, in series [1] (setting [11]), the “Mo − Ms (%)” value worked out at 32.5% and the Ms/Mo was determined as 0.68. For the same compound, the “ppm (relative to the resonant frequency of water)” value in series [1] (setting [12]) is 5.000 ppm. Further, in series [1], the “chemical shift of proton chemical exchange site (ΔωcA)” value is on record as 5.00 ppm.

In the case of `O=C1CC(=O)NC(=S)N1` [2-Thio-Barbituric Acid], in series [1] (setting [11]), the “Mo − Ms (%)” value is given as 35.3% and the Ms/Mo was found to be 0.65. Besides, the “ppm (relative to the resonant frequency of water)” value in series [1] (setting [12]) is listed as 6.333 ppm. For the same compound, the “chemical shift of proton chemical exchange site (ΔωcA)” value in series [1] was 6.33 ppm.

Consider `O=C[C@H](O)[C@@H](O)[C@@H](O)[C@H](O)CO` [Galactose], for which the “ppm (relative to the resonant frequency of water)” value in series [1] (setting [6]) worked out at 1.167 ppm. Also, in series [1] (setting [7]), the “Mo − Ms (%)” value turned out to be 10.3% and the Ms/Mo is on record as 0.85.

As for `O=C(CO)[C@@H](O)[C@H](O)[C@H](O)CO` [Fructose], the “ppm (relative to the resonant frequency of water)” value in series [1] (setting [6]) is 1.333 ppm. Also, in series [1] (setting [7]), the “Mo − Ms (%)” value is 9.3% and the Ms/Mo was found to be 0.88.

Take `N=C(N)N` [Guanidine HCl]: the “ppm (relative to the resonant frequency of water)” value in series [1] (125 mM, guanidinium protons, single pH 7.0, 37° C., 20 mM phosphate buffer) is 2.000 ppm. Besides, in series [1] (setting [14]), the “Mo − Ms (%)” value came to 60.0% and the Ms/Mo worked out at 0.38.

For the compound `Cl.N` [NH4Cl, reference compound], the “enhancement in difference image of phantoms” value in series [4] is “neither the surrounding water nor the NH4Cl control were significantly affected”.

`O=C1CNC(=O)N1` [Hydantoin]: in series [1] (setting [11]), the “Mo − Ms (%)” value is 18.7% and 21.3%; the Ms/Mo was 0.81 and 0.78.

As to `OC[C@H]1O[C@@](CO)(O[C@H]2O[C@H](CO)[C@@H](O)[C@H](O)[C@H]2O)[C@@H](O)[C@@H]1O` [Sucrose], in series [1] (setting [6]), the “ppm (relative to the resonant frequency of water)” value turned out to be 1.333 ppm. For the same compound, in series [1] (setting [7]), the “Mo − Ms (%)” value came to 10.2% and the Ms/Mo is 0.86.

`OC[C@@H](O)[C@@H](O)[C@H](O)[C@H](O)CO` [Mannitol]: the “ppm (relative to the resonant frequency of water)” value in series [1] (setting [6]) is listed as 1.000 ppm. Further, in series [1] (setting [7]), the “Mo − Ms (%)” value was 9.0% and the Ms/Mo came out at 0.89.

Turning to `N[C@@H](Cc1c[nH]c2ccccc12)C(=O)O` [L-Tryptophan], in series [1] (35 mM, —NH2, 37° C., 20 mM phosphate buffer), the “ppm (relative to the resonant frequency of water)” value is 2.000 ppm. In addition, in series [1] (setting [15]), the “Mo − Ms (%)” value is given as 12.2% and the Ms/Mo was found to be 0.89.

Take `NCCCC[C@H](N)C(=O)O` [L-Lysine]: in series [1] (setting [8]), the “Mo − Ms (%)” value is reported as 66.2% and the Ms/Mo is reported as 0.34. The “ppm (relative to the resonant frequency of water)” value in series [1] (setting [9]) is reported as 3.000 ppm.
